Assay results published in ChEMBL document CHEMBL3228010, “Potential antitumor agents. 29. Quantitative structure-activity relationships for the antileukemic bisquaternary ammonium heterocycles” (J Med Chem, 1979).

Tests used:
L1210 [1] = assay: Antitumor activity against mouse L1210 cells […] in ip dosed C3H X DBA2 F1 hybrid mouse on day 0 and dosed at LD10 level once daily on days 1 to 5 assessed as increase in life span relative to control; assay type: functional
Mus musculus = assay: Toxicity in ip dosed C3H X DBA2 F1 hybrid mouse […] with mouse L1210 cells on day 0 and dosed once daily on days 1 to 5 measured after 50 days; assay type: organism-based; settings: in vivo, 1200 h
[2] = Lipophilic-hydrophilic balance, Rm of the compound by partition chromatography; assay type: physicochemical
L1210 [3] = assay: Antitumor activity against mouse L1210 cells […] in ip dosed C3H X DBA2 F1 hybrid mouse on day 0 and dosed once daily on days 1 to 5 assessed as increase in life span relative to control; assay type: functional

Compound	log(ILSmax) (L1210 [1])	LD10 (Mus musculus) [mg/kg]	Rm [2]	D40 (L1210 [3]) [mg/kg]
CCC[n+]1cccc(NC(=O)c2ccc(NC(=O)c3ccc(C(=O)Nc4ccc(C(=O)Nc5ccc[n+](CCC)c5)cc4)c(C)c3)cc2)c1.Cc1ccc(S(=O)(=O)[O-])cc1.Cc1ccc(S(=O)(=O)[O-])cc1	<1.4	30	0.75	
CCCC[n+]1cccc2cc(NC(=O)c3ccc(-c4ccc(-c5ccc(-c6ccc(C(=O)Nc7ccc8c(ccc[n+]8CCCC)c7)cc6)cc5)cc4)cc3)ccc21.Cc1ccc(S(=O)(=O)[O-])cc1.Cc1ccc(S(=O)(=O)[O-])cc1	1.73	57	0.74	15
CCOCC[n+]1cccc2cc(NC(=O)c3ccc(C(=O)Nc4ccc5c(ccc[n+]5CCOCC)c4)cc3)ccc21.Cc1ccc(S(=O)(=O)[O-])cc1.Cc1ccc(S(=O)(=O)[O-])cc1	<1.4	20	0.8	
CC[n+]1ccc(Nc2ccc(NC(=O)CCCCCCC(=O)Nc3ccc(Nc4cc[n+](CC)cc4)cc3)cc2)cc1.[Br-].[Br-]	<1.4	10	0.83	
CCC[n+]1cccc(NC(=O)c2ccc(NC(=O)c3ccc(C(=O)Nc4ccc[n+](CCC)c4)cc3)cc2)c1.Cc1ccc(S(=O)(=O)[O-])cc1.Cc1ccc(S(=O)(=O)[O-])cc1	<1.4	15	0.65	
CC[n+]1cccc2cc(NC(=O)CCc3ccc(C(=O)Nc4ccc5c(ccc[n+]5CC)c4)cc3)ccc21.Cc1ccc(S(=O)(=O)[O-])cc1.Cc1ccc(S(=O)(=O)[O-])cc1	<1.4	1.6	1.1	
CCC[n+]1ccc(Nc2ccc(NC(=O)c3ccc(Nc4cc[n+](CCC)c5ccccc45)cc3N)cc2N)cc1.[I-].[I-]	<1.4	15	0.63	
CC[n+]1ccccc1-c1ccc(NC(=O)c2ccc(C(=O)Nc3ccc(-c4cccc[n+]4CC)cc3)cc2)cc1.Cc1ccc(S(=O)(=O)[O-])cc1.Cc1ccc(S(=O)(=O)[O-])cc1	<1.4	10	0.26	
C[n+]1cccc2cc(NC(=O)COc3ccc(C(=O)Nc4ccc5c(ccc[n+]5C)c4)cc3)ccc21.Cc1ccc(S(=O)(=O)[O-])cc1.Cc1ccc(S(=O)(=O)[O-])cc1	<1.4	0.6	-0.3	
C[n+]1cccc2cc(NC(=O)/C=C/c3ccc(C(=O)Nc4ccc5c(ccc[n+]5C)c4)cc3)ccc21.Cc1ccc(S(=O)(=O)[O-])cc1.Cc1ccc(S(=O)(=O)[O-])cc1	<1.4	3	-0.2	
CCC[n+]1ccccc1Nc1ccc(NC(=O)c2ccc(C(=O)Nc3ccc(Nc4cccc[n+]4CCC)cc3)cc2)cc1.Cc1ccc(S(=O)(=O)[O-])cc1.Cc1ccc(S(=O)(=O)[O-])cc1	<1.4	100	0.71	
CCC[n+]1cccc(NC(=O)c2ccc(NC(=O)c3ccc(C(=O)Nc4ccc(C(=O)Nc5ccc[n+](CCC)c5)cc4)c(Cl)c3)cc2)c1.Cc1ccc(S(=O)(=O)[O-])cc1.Cc1ccc(S(=O)(=O)[O-])cc1	<1.4	40	0.75	
C[n+]1cccc2cc(NC(=O)c3ccc(C(=O)Nc4ccc5c(ccc[n+]5C)c4)cc3)ccc21.Cc1ccc(S(=O)(=O)[O-])cc1.Cc1ccc(S(=O)(=O)[O-])cc1	<1.4	5	-0.21	
CC[n+]1cccc2cc(NC(=O)c3ccc(NC(=O)c4ccc5c(ccc[n+]5CC)c4)cc3)ccc21.Cc1ccc(S(=O)(=O)[O-])cc1.Cc1ccc(S(=O)(=O)[O-])cc1	<1.4	4	0.02	
CC[n+]1ccccc1NC(=O)c1ccc(NC(=O)c2ccc(C(=O)Nc3ccc(C(=O)Nc4cccc[n+]4CC)cc3)cc2)cc1.Cc1ccc(S(=O)(=O)[O-])cc1.Cc1ccc(S(=O)(=O)[O-])cc1	<1.4	13	0.57	
CC[n+]1cccc(NC(=O)c2ccc(NC(=O)c3ccc(C(=O)Nc4ccc(C(=O)Nc5ccc[n+](CC)c5)cc4C)cc3)c(C)c2)c1.Cc1ccc(S(=O)(=O)[O-])cc1.Cc1ccc(S(=O)(=O)[O-])cc1	<1.4	18	0.47	
CCC[n+]1cccc(NC(=O)c2ccc(NC(=O)C34CCC(C(=O)Nc5ccc(C(=O)Nc6ccc[n+](CCC)c6)cc5)(CC3)CC4)cc2)c1.Cc1ccc(S(=O)(=O)[O-])cc1.Cc1ccc(S(=O)(=O)[O-])cc1	1.54	30	0.86	
C[n+]1ccccc1-c1ccc(NC(=O)c2ccc(C(=O)Nc3ccc(-c4cccc[n+]4C)cc3)cc2)cc1.Cc1ccc(S(=O)(=O)[O-])cc1.Cc1ccc(S(=O)(=O)[O-])cc1	<1.4	10	0.11	
C[n+]1cccc2cc(NC(=O)c3ccc(C(=O)Nc4ccc5c(ccc[n+]5C)c4)nc3)ccc21.Cc1ccc(S(=O)(=O)[O-])cc1.Cc1ccc(S(=O)(=O)[O-])cc1	<1.4	4	-0.4	

Compound	log(ILSmax) (L1210 [1])	LD10 (Mus musculus) [mg/kg]	Rm [2]	D40 (L1210 [3]) [mg/kg]
CCCCC[n+]1cccc2cc(NC(=O)c3ccc(C(=O)Nc4ccc5c(ccc[n+]5CCCCC)c4)nc3)ccc21.Cc1ccc(S(=O)(=O)[O-])cc1.Cc1ccc(S(=O)(=O)[O-])cc1	<1.4	250	0.6	
CC(=NNC(=N)N)c1ccc(NC(=O)c2ccc(C(=O)Nc3ccc(Nc4cc[n+](C)cc4)cc3)cc2)cc1.Cc1ccc(S(=O)(=O)O)cc1.Cc1ccc(S(=O)(=O)[O-])cc1			-0.15	
CC[n+]1cccc2cc(NC(=O)c3ccc(C(=O)Nc4ccc5c(ccc[n+]5CC)c4)c(N)c3)ccc21.Cc1ccc(S(=O)(=O)[O-])cc1.Cc1ccc(S(=O)(=O)[O-])cc1	<1.4	6	-0.01	
CCC[n+]1ccccc1NC(=O)c1ccc(NC(=O)c2ccc(C(=O)Nc3ccc(C(=O)Nc4cccc[n+]4CCC)cc3)cc2)cc1.Cc1ccc(S(=O)(=O)[O-])cc1.Cc1ccc(S(=O)(=O)[O-])cc1	<1.4	100	0.73	
CCC[n+]1cccc2cc(NC(=O)CCc3ccc(C(=O)Nc4ccc5c(ccc[n+]5CCC)c4)cc3)ccc21.Cc1ccc(S(=O)(=O)[O-])cc1.Cc1ccc(S(=O)(=O)[O-])cc1	<1.4	2	1.25	
CC[n+]1cccc(NC(=O)c2ccc(NC(=O)c3ccc(C(=O)Nc4ccc[n+](CC)c4)cc3)cc2)c1.Cc1ccc(S(=O)(=O)[O-])cc1.Cc1ccc(S(=O)(=O)[O-])cc1	<1.4	8	0.3	
C[n+]1cccc2cc(NC(=O)Cc3ccc(CC(=O)Nc4ccc5c(ccc[n+]5C)c4)cc3)ccc21.Cc1ccc(S(=O)(=O)[O-])cc1.Cc1ccc(S(=O)(=O)[O-])cc1			0.07	
CC[n+]1ccc(Nc2ccc(NC(=O)CCCCCC(=O)Nc3ccc(Nc4cc[n+](CC)cc4)cc3)cc2)cc1.[O-][Cl+3]([O-])([O-])[O-].[O-][Cl+3]([O-])([O-])[O-]	<1.4	20	0.69	
CCCC[n+]1cccc2cc(NC(=O)Cc3ccc(CC(=O)Nc4ccc5c(ccc[n+]5CCCC)c4)cc3)ccc21.Cc1ccc(S(=O)(=O)[O-])cc1.Cc1ccc(S(=O)(=O)[O-])cc1			0.92	
CC[n+]1ccccc1Nc1ccc(NC(=O)c2ccc(C(=O)Nc3ccc(Nc4cccc[n+]4CC)cc3)cc2)cc1.[I-].[I-]	<1.4	16	0.53	
C[n+]1ccccc1NC(=O)c1ccc(NC(=O)c2ccc(C(=O)Nc3ccc(C(=O)Nc4cccc[n+]4C)cc3)cc2)cc1.Cc1ccc(S(=O)(=O)[O-])cc1.Cc1ccc(S(=O)(=O)[O-])cc1	<1.4	7	0.11	
CC[n+]1cccc2cc(NC(=O)c3ccc(C(=O)Nc4ccc5c(ccc[n+]5CC)c4)cc3)ccc21.Cc1ccc(S(=O)(=O)[O-])cc1.Cc1ccc(S(=O)(=O)[O-])cc1	1.43	4	0.03	
CCCCCC[n+]1cccc2cc(NC(=O)c3ccc(C(=O)Nc4ccc5c(ccc[n+]5CCCCCC)c4)cc3)ccc21.Cc1ccc(S(=O)(=O)[O-])cc1.Cc1ccc(S(=O)(=O)[O-])cc1	<1.4	27	1.03	
CCC[n+]1cccc(NC(=O)c2ccc(NC(=O)c3ccc(C(=O)Nc4ccc(C(=O)Nc5ccc[n+](CCC)c5)cc4)c(N)c3)cc2)c1.Cc1ccc(S(=O)(=O)[O-])cc1.Cc1ccc(S(=O)(=O)[O-])cc1	<1.4	47	0.2	
CCC[n+]1ccc(Nc2ccc(NC(=O)c3ccc(Nc4cc[n+](CCC)c5ccccc45)cc3)cc2N)cc1.[I-].[I-]	1.43	4.4	0.76	
CCCC[n+]1cccc2cc(NC(=O)c3ccc(NC(=O)c4ccc5c(ccc[n+]5CCCC)c4)cc3)ccc21.Cc1ccc(S(=O)(=O)[O-])cc1.Cc1ccc(S(=O)(=O)[O-])cc1	<1.4	200	0.59	
C[n+]1cccc2cc(NC(=O)CCc3ccc(C(=O)Nc4ccc5c(ccc[n+]5C)c4)cc3)ccc21.Cc1ccc(S(=O)(=O)[O-])cc1.Cc1ccc(S(=O)(=O)[O-])cc1	<1.4	270	0.85	
CC[n+]1ccc(Nc2ccc(NC(=O)c3ccc(Nc4cc[n+](CC)c5ccccc45)cc3N)cc2N)cc1.[I-].[I-]	<1.4	20	0.35	
